Measured values published in patent US9023789B2, “Amylin analogs and pharmaceutical compositions thereof” (Novo Nordisk A/S, priority 2012, dated 2015).
Numbered stars: 1 amine (or outer) side, 2 acyl side, 3 side chain; on linkers, the order of the positions; unused ones are H or OH. Bridge positions count the residues as written; N and C are the ends. Side chains are listed from the residue outwards. Peptide text beside a SMILES is read from it. * marks the point of attachment. C20 diacid = O=C(O)CCCCCCCCCCCCCCCCCCC(=O)*; γGlu = O=C(O)[C@H](CCC(=O)[*:2])N[*:1]; AEEA = NCCOCCOCC(=O)O

Key:
[1] = biological target: T1, human amylin 3(a) receptor (human calcitonin receptor + RAMP-3) in BHK570 cells (Homo sapiens, UniProt O60896+P30988); test: ASSAY (II)a functional assay, human amylin receptor (CRE luciferase); format: cell-based
T1 construct: expressed in transfected cells
Summary of the method: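 Readout is luminescence from a cAMP-responsive CRE-luc reporter, developed with LucLite for 30 min at room temperature. Cells were treated for 3 h at 37 °C in 10% FBS/DMEM buffered with 10 mM Hepes (pH 7.4).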

[2] = ASSAY (III) ThT fibrillation assay for physical stability; format: physicochemical
Summary of the method: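 Physical stability scored by ThT fluorescence (444 nm excitation, 485 nm emission) tracked every 20 min during 37 °C incubation with 960 rpm shaking, ThT at 1 μM final. Values are replicate means with SD at chosen times; HPLC against pramlintide standard gives initial and post-assay soluble concentrations.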

[3] = biological target: T2, human amylin receptor (membranes from Amylin 3(a)/CRE-luc cells) (Homo sapiens, UniProt O60896+P30988); test: ASSAY (V) binding to the human amylin receptor (SPA, 125I-rat amylin);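 further: competition binding of cell membranes (35 ng/µL) mixed with SPA beads in 384-well plates at 40 µL total volume, read by scintillation counting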
T2 construct: expressed in transfected cells
T2 sequence (P30988 25-474): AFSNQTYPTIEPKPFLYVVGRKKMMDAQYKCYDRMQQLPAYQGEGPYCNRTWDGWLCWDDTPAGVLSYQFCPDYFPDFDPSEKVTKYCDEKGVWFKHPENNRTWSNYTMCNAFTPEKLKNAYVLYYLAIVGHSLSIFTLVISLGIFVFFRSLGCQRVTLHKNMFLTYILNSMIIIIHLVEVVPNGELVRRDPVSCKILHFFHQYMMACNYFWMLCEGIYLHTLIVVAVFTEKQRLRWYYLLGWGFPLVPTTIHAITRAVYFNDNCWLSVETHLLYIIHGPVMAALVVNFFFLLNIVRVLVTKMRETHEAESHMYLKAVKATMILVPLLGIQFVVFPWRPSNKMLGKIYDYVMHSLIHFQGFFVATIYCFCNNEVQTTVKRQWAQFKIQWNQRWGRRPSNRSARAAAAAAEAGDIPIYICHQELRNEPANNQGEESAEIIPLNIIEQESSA
T2 sequence (O60896 24-148 partner): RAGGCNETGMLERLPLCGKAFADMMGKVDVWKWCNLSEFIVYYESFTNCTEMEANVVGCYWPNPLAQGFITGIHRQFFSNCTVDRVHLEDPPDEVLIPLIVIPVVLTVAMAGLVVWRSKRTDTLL

[4] = hCTR funct. EC50 divided by hAmylin-R funct. EC50
[5] = hCTR funct. EC50 over hAmylin-R funct. EC50
[6] = human functional selectivity: hCTR funct. EC50 / hAmylin-R funct. EC50
[7] = Table 5, selectivity, hCTR bind IC50 / hAmylin-R bind IC50
[8] = Table 5a, selectivity, hCTR bind IC50 / hAmylin-R bind IC50
[9] = Table 5b, selectivity, hCTR bind IC50 / hAmylin-R bind IC50
[10] = Table 5c, selectivity, hCTR bind IC50 / hAmylin-R bind IC50
[11] = Table 7, human binding selectivity, included for comparison
[12] = Table 7a (preferred compounds), human binding selectivity, included for comparison
[13] = ratio of human calcitonin receptor binding IC50 to human amylin receptor binding IC50

| Ratio hCT/hAmylin funct. [1, 4] | Ratio hCT/hAmylin funct. [1, 5] | Ratio hCT/hAmylin funct. [1, 6] | ThT pH 4.0 lag time (h) [2] [h] | Ratio hCT/hAmylin binding [3, 7] | Ratio hCT/hAmylin binding [3, 8] | Ratio hCT/hAmylin binding [3, 9] | Ratio hCT/hAmylin binding [3, 10] | Ratio hCT/hAmylin binding [3, 11] | Ratio hCT/hAmylin binding [3, 12] | Ratio hCT/hAmylin binding [3, 13] | EC50 ([1]; human amylin receptor functional potency, assay (II), read-out: hAmylin-R funct. EC50) [nM] | IC50 ([3]; Table 4, read-out: hAmylin-R bind IC50) [nM] | SMILES |
| --- | --- | --- | --- | --- | --- | --- | --- | --- | --- | --- | --- | --- | --- |
| 6.0 | 6.0 | 6.0 | 45 | 44.9 | 44.9 | 44.9 | 44.9 | 44.9 | 44.9 | 44.9 |  |  | CC[C@H](C)[C@H](NC(=O)[C@H](C)NC(=O)CNC(=O)[C@H](Cc1ccccc1)NC(=O)[C@H](CC(N)=O)NC(=O)[C@@H]1CCCN1C(=O)[C@H](CO)NC(=O)[C@H](CO)NC(=O)[C@H](Cc1c[nH]cn1)NC(=O)[C@H](CCCNC(=N)N)NC(=O)[C@H](CC(C)C)NC(=O)[C@H](Cc1ccccc1)NC(=O)[C@H](CC(N)=O)NC(=O)[C@H](C)NC(=O)[C@H](CC(C)C)NC(=O)[C@H](CCCNC(=N)N)NC(=O)[C@H](CCC(N)=O)NC(=O)[C@@H](NC(=O)[C@H](C)NC(=O)[C@@H]1CSSC[C@H](NC(=O)[C@H](CCCNC(=N)N)NC(=O)CNC(=O)CC[C@H](NC(=O)CCCCCCCCCCCCCCCCCCC(=O)O)C(=O)O)C(=O)N[C@@H](CC(N)=O)C(=O)N[C@@H]([C@@H](C)O)C(=O)N[C@@H](C)C(=O)N[C@@H]([C@@H](C)O)C(=O)N1)[C@@H](C)O)C(=O)N1CCC[C@H]1C(=O)N[C@@H](CO)C(=O)N[C@@H](CO)C(=O)N[C@H](C(=O)N[C@@H](CC(N)=O)C(=O)N[C@H](C(=O)NCC(=O)N[C@@H](CO)C(=O)N[C@@H](Cc1c[nH]cn1)C(=O)N[C@H](C(=O)N[C@@H](Cc1ccc(O)cc1)C(N)=O)[C@@H](C)O)C(C)C)[C@@H](C)O [Example 47] ({C20 diacid-γGlu}-GRCNTATCATQRLANFLRHSSPNFGAIPSSTNVGSHTY-NH2; disulfide 3-8) |
| 14.0 | 14.0 | 14.0 | 7 | 37.5 | 37.5 | 37.5 | 37.5 | 37.5 | 37.5 | 37.5 |  |  | CC[C@H](C)[C@H](NC(=O)[C@H](C)NC(=O)CNC(=O)[C@H](Cc1ccccc1)NC(=O)[C@H](CC(N)=O)NC(=O)[C@@H]1CCCN1C(=O)[C@H](CO)NC(=O)[C@H](CO)NC(=O)[C@H](Cc1c[nH]cn1)NC(=O)[C@H](CCCNC(=N)N)NC(=O)[C@H](CC(C)C)NC(=O)[C@H](Cc1ccccc1)NC(=O)[C@H](CCC(=O)O)NC(=O)[C@H](C)NC(=O)[C@H](CC(C)C)NC(=O)[C@H](CCCNC(=N)N)NC(=O)[C@H](CCC(N)=O)NC(=O)[C@@H](NC(=O)[C@H](C)NC(=O)[C@@H]1CSSC[C@H](NC(=O)[C@@H](N)CCCCNC(=O)CC[C@H](NC(=O)CCCCCCCCCCCCCCCCCCC(=O)O)C(=O)O)C(=O)N[C@@H](CC(N)=O)C(=O)N[C@@H]([C@@H](C)O)C(=O)N[C@@H](C)C(=O)N[C@@H]([C@@H](C)O)C(=O)N1)[C@@H](C)O)C(=O)N1CCC[C@H]1C(=O)N[C@@H](CO)C(=O)N[C@@H](CO)C(=O)N[C@H](C(=O)N[C@@H](CC(N)=O)C(=O)N[C@H](C(=O)NCC(=O)N[C@@H](CO)C(=O)N[C@@H](CCCNC(=N)N)C(=O)N[C@H](C(=O)N[C@@H](Cc1ccc(O)cc1)C(N)=O)[C@@H](C)O)C(C)C)[C@@H](C)O [Example 51] (H-K([γGlu-C20 diacid])CNTATCATQRLAEFLRHSSPNFGAIPSSTNVGSRTY-NH2; disulfide 2-7 (inferred); N-terminus assumed) |
| 41.4 | 41.4 | 41.4 | 41 | 81.6 | 81.6 | 81.6 | 81.6 | 81.6 | 81.6 | 81.6 |  |  | CC[C@H](C)[C@H](NC(=O)[C@H](C)NC(=O)CNC(=O)[C@H](Cc1ccccc1)NC(=O)[C@H](CC(N)=O)NC(=O)[C@@H]1CCCN1C(=O)[C@H](CO)NC(=O)[C@H](CO)NC(=O)[C@H](Cc1c[nH]cn1)NC(=O)[C@H](CCCNC(=N)N)NC(=O)[C@H](CC(C)C)NC(=O)[C@H](Cc1ccccc1)NC(=O)[C@H](CC(=O)O)NC(=O)[C@H](C)NC(=O)[C@H](CC(C)C)NC(=O)[C@H](CCCNC(=N)N)NC(=O)[C@H](CCC(N)=O)NC(=O)[C@@H](NC(=O)[C@H](C)NC(=O)[C@@H]1CSSC[C@H](NC(=O)[C@@H](N)CCCCNC(=O)CC[C@H](NC(=O)CC[C@H](NC(=O)CCCCCCCCCCCCCCCCCCC(=O)O)C(=O)O)C(=O)O)C(=O)N[C@@H](CC(N)=O)C(=O)N[C@@H]([C@@H](C)O)C(=O)N[C@@H](C)C(=O)N[C@@H]([C@@H](C)O)C(=O)N1)[C@@H](C)O)C(=O)N1CCC[C@H]1C(=O)N[C@@H](CO)C(=O)N[C@@H](CO)C(=O)N[C@H](C(=O)N[C@@H](CC(N)=O)C(=O)N[C@H](C(=O)NCC(=O)N[C@@H](CO)C(=O)N[C@@H](CCCNC(=N)N)C(=O)N[C@H](C(=O)N[C@@H](Cc1ccc(O)cc1)C(N)=O)[C@@H](C)O)C(C)C)[C@@H](C)O [Example 52, N-ε-1-{(S)-4-carboxy-4-[(S)-4-carboxy-4-(19-carboxynonadecanoylamino)butyrylamino]butyryl}-[Asp14,Arg17,Pro21,Pro27,Arg35]-human amylin] |
| 35.0 | 35.0 | 35.0 | 45 | 133.0 | 133.0 | 133.0 | 133.0 | 133.0 | 133.0 | 133.0 | 0.089 | 0.115 | CC[C@H](C)[C@H](NC(=O)[C@H](C)NC(=O)CNC(=O)[C@H](Cc1ccccc1)NC(=O)[C@H](CC(N)=O)NC(=O)[C@@H]1CCCN1C(=O)[C@H](CO)NC(=O)[C@H](CO)NC(=O)[C@H](Cc1c[nH]cn1)NC(=O)[C@H](CCCNC(=N)N)NC(=O)[C@H](CC(C)C)NC(=O)[C@H](Cc1ccccc1)NC(=O)[C@H](CC(N)=O)NC(=O)[C@H](C)NC(=O)[C@H](CC(C)C)NC(=O)[C@H](CCCNC(=N)N)NC(=O)[C@H](CCC(N)=O)NC(=O)[C@@H](NC(=O)[C@H](C)NC(=O)[C@@H]1CSSC[C@H](NC(=O)[C@@H](N)CCCCNC(=O)COCCOCCNC(=O)CC[C@H](NC(=O)CCCCCCCCCCCCCCCCCCC(=O)O)C(=O)O)C(=O)N[C@@H](CC(N)=O)C(=O)N[C@@H]([C@@H](C)O)C(=O)N[C@@H](C)C(=O)N[C@@H]([C@@H](C)O)C(=O)N1)[C@@H](C)O)C(=O)N1CCC[C@H]1C(=O)N[C@@H](CO)C(=O)N[C@@H](CO)C(=O)N[C@H](C(=O)N1CCC[C@H]1C(=O)N[C@H](C(=O)NCC(=O)N[C@@H](CO)C(=O)N[C@@H](Cc1c[nH]cn1)C(=O)N[C@H](C(=O)N[C@@H](Cc1ccc(O)cc1)C(N)=O)[C@@H](C)O)C(C)C)[C@@H](C)O [Example 57] (H-K([AEEA-γGlu-C20 diacid])CNTATCATQRLANFLRHSSPNFGAIPSSTPVGSHTY-NH2; disulfide 2-7; N-terminus assumed) |
